In patent EP0727211A1, “Use of src SH2 specific compounds to treat a bone resorption disease” (SMITHKLINE BEECHAM CORPORATION, priority 1995, dated 1996):
Where two headings read alike, the source gives them in different places. Each block holds one compound with its values, some of them ahead of it.

Columns and labels:
[1] = system: osteoclast mediated bone resorption; experiment: fetal rat long bone (FRLB) assay, 45calcium release; type: cell-based, Sprague Dawley rats; conditions: inhibition of 45calcium release from fetal rat radii and ulnae, 48 hours culture with compound, n=4
Method: 4-[4-(4-Methylbenzoyl)benzoyl]phenylacetaldehyde (Compound 4) was tested for its potency to inhibit osteoclast mediated bone resorption in the fetal rat long bone (FRLB) assay as described in Raisz LG (1965) J Clin Invest 44: 103-116, Stern PH et al., (1979) Skeletal Research: An experimental Approach. New York:Academic Press, 21-59 and Votta BJ et al., (1994) Bone 15:533-538).
To perform the experiment timed-pregnant Sprague Dawley rats (Taconic Farms, Germantown, NY) were injected subcutaneously with 200 µCi of ^45CaCl2 on day 18 of gestation, housed overnight, then anesthetized with Innovar-Vet (Pittman-Moore, Mundelein, IL) and sacrificed by cervical dislocation. Fetuses were removed aseptically and radii and ulnae were dissected free of surrounding soft tissue and cartilaginous ends. The bones were cultured 18-24 hours in BGJb medium (Sigma) containing 1 mg/ml bovine serum albumin, then transferred to fresh medium and cultured for an additional 48 hours in the absence or presence of Compound 4. ^45Calcium released into the medium and total calcium in the bones were measured by liquid scintillation spectrometry. Data were expressed as the % ^45calcium released from treated bones as compared to corresponding control bones. Statistical differences were assessed by employing a one-way analysis of variance for non-paired samples. Data are presented as mean ± s.e.m., n=4. […]

human src SH2 domain [2] = target: human src SH2 domain (Homo sapiens, UniProt P12931); experiment: SH2 domain / pY peptide binding assay (ELISA-based, 96 well plate), src SH2
Chain of human src SH2 domain (Homo sapiens, UniProt P12931) (P12931 151-248): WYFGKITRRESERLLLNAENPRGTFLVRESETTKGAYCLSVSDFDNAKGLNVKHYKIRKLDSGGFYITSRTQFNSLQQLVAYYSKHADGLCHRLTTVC
Method: (§1) The inhibitory activity of compounds at the different human SH2 domains was determined in vitro using SH2 domains expressed as fusion proteins in E. coli. The SH2 domains used herein were the human forms of the src SH2 domain, Grb2 SH2 domain, lck SH2 domain, fyn SH2 domain, SH-PTP2 SH2 domain, p85 SH2 domain and hcp SH2 domain. The fusion proteins containing the src, lck and hcp SH2 domains were expressed as the general sequence: DET1-DET2-spacer-ek-SH2, where DETI, DET2, spacer, ek and SH2 are as described below. […] Monoclonal antibodies to various epitopes of HIV-1 gp120 (or gp160) are known in the art, see, for example U.S. Patent 5,166,050. One preferred example is monoclonal antibody 178.1 (see, […] et al., J. Immunol., 143:1832-1836 (1989)), which was prepared by immunization of mice with a yeast-expressed HIV-1 gp160 molecule from strain BH10 (Ratner et al., Nature, 313:277-284 (1985)). This tag was used for detection of expression (by Western blot), for purification of the protein (by affinity chromatography), and for configuring assays in which the fusion protein was captured or immobilized using the 178.1 antibody. DET2 is a hexahistidine sequence tag (SEQ ID NO: 2) which binds to nickel-containing resins and was used for purification purposes. Spacer (SEQ ID NO: 3) was utilized to design a BamH1 restriction site at the indicated position of the construct. The term -[…] to a recognition sequence (SEQ ID NO: 4) for the enterokinase protease which provides for the optional removal of the tags from the SH2 domain, thus producing an SH2 domain that contains no extraneous amino acids. SH2 domains which contain no extraneous amino acids are preferable to tagged protein for crystallography studies. SH2 refers to the SH2 domains of different proteins. Cloning, expression and purification of human src SH2 domain containing tags and an enterokinase proteolytic cleavage site (DET1-DET2-spacer-ek-src SH2). A DNA sequence encoding protein ek-src SH2 was PCR amplified from a cDNA clone containing the human src gene (c-src SH2 DNA sequence identical to that described in […]. and Hanafusa, H, 1983 Cell 32:881-890) using the following primers: [formula] The PCR product was digested with BamHI and XbaI, followed by isolation of the digested fragment on an agarose gel. […] In that vector, the BamHI site is located between the coding regions for DET2 and SH2, and the XbaI site is located after the 3' end of the SH2 coding region. The ligation reaction was used to transform E. coli M[…]^+. […] Cells were lysed at neutral pH by sonication in the […] of lysozyme. […] After washing the column with equilibration buffer (Tris buffer pH 8 containing 0.5 M NaCl) and the same buffer containing 15 mM imidazole, the protein was eluted in highly purified form with 25 mM imidazole in equilibration buffer. […] The binding assays for the SH2 domains and pY peptides were performed in an ELISA-based 96 well plate assay. In Millipore 96 well filter plates, hydrophilic Durapore® (pore size 0.65um Cat. No. MADVN6550), was added 2 ul (50% suspension) of Protein-G Sepharose (available from Pharmacia of N.J. Cat. […] The volume was brought to 100 ul with TBS-T (tris buffered saline plus 0.05% tween-20), incubated and shaken at room trmperature for 1 hr. then washed 1x with TBS-T (4°C). 90 ul of TBS-T were then added to each well. […] The assay plates were incubated until equilibrium binding was attained (3 hr at 4°C with shaking). […] The A490 of each ELISA plate was then determined. […]

human src SH2 domain [3] = experiment: as above; conditions: selectivity for src SH2 versus the other SH2 domains of Tables I and II
Method: as §1

IC50 [1]: 19 µM
SMILES: Cc1ccc(C(=O)c2ccc(C(=O)c3ccc(CC=O)cc3)cc2)cc1 [Compound 4, 4-[4-(4-Methylbenzoyl)benzoyl]phenylacetaldehyde]

SMILES: N[C@@H](Cc1cc(Br)c(Oc2ccc(O)c(Cc3ccc(O)nn3)c2)c(Br)c1)C(=O)O [Compound 2, L-3,5-Dibromo-3'-(6-oxo-3(1H)-pyridazinylmethyl)-thyronine]
IC50 (human src SH2 domain [2]; read-out: Src (IC50); cloned human SH2 domain fusion protein; 0.1 uM biotinylated pY peptide; Table I): > 300 µM
Ki (human src SH2 domain [2]; read-out: Src (Ki); Ki calculated from IC50 by the expanded equation; Table II): > 1000 µM

Ki (human src SH2 domain [2]; Ki calculated from IC50 by the expanded equation; Table II; read-out: Src (Ki)): 20 µM
IC50 (human src SH2 domain [2]; cloned human SH2 domain fusion protein; 0.1 uM biotinylated pY peptide; Table I; read-out: Src (IC50)): 7.4 µM
binding affinity/inhibitory concentration at the src SH2 domain than at other SH2 domains (human src SH2 domain [3]): greater than fifty-fold higher
SMILES: CCCCCCNC(=O)[C@H]1CC[C@H](CNC(=O)c2ccc([N+](=O)[O-])cc2)CC1 [Compound 7, 4-nitro-benzamido-trans-4-methyl-cyclohexyl-N-hexyl carboxamide]
